Among the data in US11229636B2, “Substituted tetrahydroquinolinone compounds as ROR gamma modulators” (Aurigene Discovery Technologies Limited, priority 2015, dated 2022) are inhibition and IC50 values, retold here.

This test concerns the target RORγ LBD (Homo sapiens (Human), UniProt P51449). The test can be described thus: ROR gamma radio-ligand binding assay (3H 25-Hydroxycholesterol competitive displacement, dextran charcoal method). The note with it: for inhibition at 1 µM: 1 μM compound; for inhibition at 10 µM: 10 μM compound; for IC50: in range. The procedure: Gene corresponding to the ligand binding domain of RORγ (247-497 amino acids) was sub-cloned into pGEX4T1 vector. Transformants of E. coli BL21 (DE3) containing pGEX4T1-RORγ (247-497) were grown to an OD of 0.8 at 37° C. and induced with 0.5 mM isopropyl-β-D-thiogalactopyranoside (IPTG) for 18 hours at 18° C. Cells were harvested and resuspended in 20 mM Tris-HCl (pH 8.5), 0.3 M NaCl, 10% Glycerol, 2 mM β-Me (β-Mercaptoethanol), 2 mM CHAPS, protease inhibitors, 0.6 mM PMSF and Lysozyme. Supernatant of lysate was passed through glutathione sepharose 4B affinity beads (GE health care) pre-equilibrated with 20 mM Tris-HCl (pH 8.5), 0.3 M NaCl, 10% Glycerol, 2 mM β-Me. RORγ was eluted using a gradient of reduced glutathione (3-20 mM). Fractions containing RORγ protein were pooled, concentrated and passed through Superdex 75 gel filtration (GE health care) column equilibrated with 20 mM Na-phosphate pH 8.0, 0.2 M NaCl, 10% glycerol. The peak fractions from gel filtration column were pooled and stored at −80° C. for Binding assay.
ROR gamma radioligand binding was performed using ^3H 25-Hydroxycholesterol in a competitive displacement assay using dextran charcoal method. Using 5 nM ^3H 25-Hydroxycholesterol with 300 ng RORγ LBD (in house expressed in E. coli) along with the compound were incubated in the binding buffer (50 mM HEPES, pH 7.5, 150 mM NaCl, 0.01% BSA and 5 mM MgCl2) for 30 min at room temperature. Then dextran-charcoal mixture (0.5% charcoal: 0.05% dextran) was used for separation and the supernatant was read on the Perkin Elmer Trilux Microbeta counter. Dose response curves were generated for 10 compound concentrations using GraphPad Prism software Version 5 (San Diego, Calif., USA) using non-linear regression curve fit for sigmoidal dose response (variable slope).

Chain of RORγ LBD (P51449 268-518): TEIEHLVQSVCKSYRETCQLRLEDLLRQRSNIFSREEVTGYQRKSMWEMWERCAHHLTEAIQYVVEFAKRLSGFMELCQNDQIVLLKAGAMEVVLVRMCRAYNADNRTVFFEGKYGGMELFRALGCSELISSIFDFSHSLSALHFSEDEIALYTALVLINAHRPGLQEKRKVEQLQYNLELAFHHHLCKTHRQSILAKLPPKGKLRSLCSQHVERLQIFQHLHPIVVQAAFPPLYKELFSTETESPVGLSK

On to `CCS(=O)(=O)c1ccc(CC(=O)Nc2cc(C)c3c(n2)CCC(C)(n2cccn2)C3=O)cc1` (centres unmarked) [Compound 47], for which the inhibition at 1 µM worked out at 82%, the inhibition at 10 µM amounted to 98% and the IC50 was less than 0.15 µM.
As for `CCc1nc(C)cc(C2(C)CCc3nc(NC(=O)Cc4ccc(S(=O)(=O)CC)cc4)ccc3C2=O)n1` (centres unmarked) [compound 132, N-(6-(2-ethyl-6-methylpyrimidin-4-yl)-6-methyl-5-oxo-5,6,7,8-tetrahydroquinolin-2-yl)-2-(4-(ethylsulfonyl)phenyl)acetamide], the inhibition at 1 µM came out at 99%, the inhibition at 10 µM amounted to 103% and the IC50 is less than 0.15 µM.
The matching figures for `CCS(=O)(=O)c1ccc(CC(=O)Nc2cc(C)c3c(n2)CCC(C)(c2ncc(OC)cn2)C3=O)cc1` (centres unmarked) [Compound 61, 2-(4-(ethylsulfonyl)phenyl)-N-(6-(5-methoxypyrimidin-2-yl)-4,6-dimethyl-5-oxo-5,6,7,8-tetrahydroquinolin-2-yl)acetamide]: 90%, 74% and less than 0.15 µM.
For `CCS(=O)(=O)c1ccc(CC(=O)Nc2ccc3c(n2)CCC(C)(n2nc(C)cc2C)C3=O)cc1` (centres unmarked) [Compound 46, N-(6-(3,5-dimethyl-1H-pyrazol-1-yl)-6-methyl-5-oxo-5,6,7,8-tetrahydroquinolin-2-yl)-2-(4-(ethylsulfonyl)phenyl)acetamide], the inhibition at 1 µM worked out at 56%, the inhibition at 10 µM stood at 92% and the IC50 was more than 0.3 µM.
With `CCS(=O)(=O)c1ccc(CC(=O)Nc2ccc3c(n2)CC(C)(C)C(c2ncccc2O)C3=O)cc1` (centres unmarked) [Compound 87, 2-(4-(ethylsulfonyl)phenyl)-N-(6-(3-hydroxypyridin-2-yl)-7,7-dimethyl-5-oxo-5,6,7,8-tetrahydroquinolin-2-yl)acetamide], the inhibition at 1 µM amounted to 82%, the inhibition at 10 µM stood at 99% and the IC50 is 0.15 to 0.3 µM.
Regarding `CCS(=O)(=O)c1ccc(CC(=O)Nc2cc(C)c3c(n2)CCC(C)(c2cccc(OC)n2)C3=O)cc1` (centres unmarked) [Compound 19, 2-(4-(ethylsulfonyl)phenyl)-N-(6-(6-methoxypyridin-2-yl)-4,6-dimethyl-5-oxo-5,6,7,8-tetrahydroquinolin-2-yl)acetamide], the inhibition at 1 µM was 98%, the inhibition at 10 µM worked out at 98% and the IC50 lay within 0.15 to 0.3 µM.
As for `CCc1cc(C2(C)CCc3nc(NC(=O)Cc4ccc(S(=O)(=O)CC)cc4)ccc3C2=O)nc(C)n1` (centres unmarked) [Compound-131], the inhibition at 1 µM worked out at 51% and the inhibition at 10 µM stood at 42%.
Regarding `CCS(=O)(=O)c1ccc(CC(=O)Nc2cc(C)c3c(n2)CCC(C)(c2cc(C)nc(OC)n2)C3=O)cc1` (centres unmarked) [Compound-135, 2-(4-(ethylsulfonyl)phenyl)-N-(6-(2-methoxy-6-methylpyrimidin-4-yl)-4,6-dimethyl-5-oxo-5,6,7,8-tetrahydroquinolin-2-yl)acetamide], the inhibition at 1 µM turned out to be 90%, the inhibition at 10 µM worked out at 104% and the IC50 is less than 0.15 µM.
`CCS(=O)(=O)c1ccc(CC(=O)Nc2cc(C)c3c(n2)CCC(C)(c2cccnc2O)C3=O)cc1` (centres unmarked) [Compound 84, 2-(4-(ethylsulfonyl)phenyl)-N-(6-(2-hydroxypyridin-3-yl)-4,6-dimethyl-5-oxo-5,6,7,8-tetrahydroquinolin-2-yl)acetamide]: the inhibition at 1 µM turned out to be 82%, the inhibition at 10 µM amounted to 100% and the IC50 fell in the range of 0.15 to 0.3 µM.
For `CCc1cc(C2(C)CCc3nc(NC(=O)Cc4ccc(S(=O)(=O)CC)cc4)ccc3C2=O)nc(CC)n1` (centres unmarked) [compound 133, N-(6-(2,6-diethylpyrimidin-4-yl)-6-methyl-5-oxo-5,6,7,8-tetrahydroquinolin-2-yl)-2-(4-(ethylsulfonyl)phenyl)acetamide] the same measures were 96%, 109% and less than 0.15 µM.

A word on the inhibition: it is the relative decrease from the control value, in per cent. A word on the IC50: it is the concentration that inhibits the measured activity by half.
